Reference: patent US6147097A, “Imidazole derivatives as anti-HIV agents” (Shionogi & Co., Ltd., priority 1994, dated 2000)
pIC50: −log10 of the molar value. Values after ≈ are worked out from the molar mass of the structure shown. Counter-ions that a name gives are not always drawn. Like-named read-outs stand apart in the source and are kept apart here.

What was measured:
[1] = target: T1, purified recombinant HIV-1 reverse transcriptase (Human immunodeficiency virus type 1 group M subtype B, UniProt P04585); experiment: reverse transcriptase inhibition, poly(rA)/(dT) template primer, [3H]dTTP uptake; format: biochemical
T1 construct: purified recombinant HIV-1 reverse transcriptase; made in house; host or cells: Escherichia coli
How it was run: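 Inhibition reported as percent reduction of [3H]dTTP incorporation relative to solvent control, after 1 h at 37 °C at pH 8.3. Recombinant RT from E. coli, poly(rA) template with oligo(dT) primer, 4 μM unlabeled dTTP as substrate; product collected on DEAE filter mats.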

HIV (HTLV-IIIB strain) = experiment: microbe, parasite or virus in culture; format: cell-based; settings: Human immunodeficiency virus 1, IIIB, MT4, 120 h
How it was run: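 MT-4 cells (3.5×10^4 per well) were infected with HIV at 60 pfu per well in the presence of diluted compound and incubated for 5 days at 37° C. Surviving cells were then measured by MTT reduction, with the formazan dissolved in acidified isopropanol containing Triton X-100.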

[2] = cytotoxicity in MT-4 cells (MTT, culture medium in place of HIV); format: cell-based; settings: human
How it was run: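 MT-4 cells (3.5×10^4 per well) exposed to diluted compound with culture medium added instead of HIV, 5 days at 37° C in CO2. MTT added for 1 h, formazan dissolved in Triton X-100/acidified isopropanol. OD read at 560 nm (690 nm reference) and compared with control.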

[3] = MT-4 cells, 60 pfu HIV per well, 37° C., 5 days, MTT, Tables 1 and 2, read-out: EC50
[4] = MT-4 cells, no virus, 37° C., 5 days, MTT, Table 3, read-out: CC50

Row | SMILES | pIC50 [1] | EC50 (HIV (HTLV-IIIB strain); [3]) | CC50 at 120 h [2, 4] | CC50 at 120 h ([2]; mt-4 cells) | EC50 (HIV (HTLV-IIIB strain)) | pIC50 ([1]; read-out: RT IC50, pH 8.3, 37° C., 1 hour, Tables 5 and 6)
1 | Cc1cc(C)cc([S+]([O-])c2c(C(C)C)nc(CO)n2C)c1 (stereo not drawn) [Compound I-106, [5-(3,5-dimethylphenylsulfinyl)-4-isopropyl-1-methyl-1H-imidazol-2-yl]methanol] | < 3.49 | 1 to 10 mg/L (≈ 3.26 to 32.6 µM) | 100 mg/L (≈ 326 µM) |  |  | 
2 | CC(C)c1nc(CN)n(Cc2ccncc2)c1Sc1cc(Cl)cc(Cl)c1 [I-95', 2-aminomethyl-5-(3,5-dichlorophenylthio)-4-isopropyl-1-(pyridin-4-yl)methyl-1H-imidazole] | 5.93 | 0.005 mg/L (≈ 0.0123 µM) | 6.3 to 12.5 mg/L (≈ 15.5 to 30.7 µM) |  |  | 
3 | CC(Cn1c(COC(N)=O)nc(C(C)C)c1Sc1cc(Cl)cc(Cl)c1)OC(N)=O (stereo not drawn) [Compound I-152, 2-carbamoyloxymethyl-1-(2-carbamoyloxypropyl)-5-(3,5-dichlorophenylthio)-4-isopropyl-1H-imidazole] | 5.49 | < 0.008 mg/L |  | 12.5 to 25 mg/L (≈ 27.1 to 54.2 µM) |  | 
4 | CCOC(=O)Cn1c(COCc2ccccc2)nc(C(C)C)c1Sc1cc(Cl)cc(Cl)c1 [Compound 118b] | < 3.69 | 0.25 mg/L (≈ 0.507 µM) |  | 12.5 to 25 mg/L (≈ 25.3 to 50.7 µM) |  | 
5 | CCn1c(CN)nc(C(C)C)c1Sc1cc(Cl)cc(Cl)c1 [Compound I-71, 2-aminomethyl-5-(3,5-dichlorophenylthio)-1-ethyl-4-isopropyl-1H-imidazole] | 6.01 | 0.008 mg/L (≈ 0.0232 µM) | 1 to 10 mg/L (≈ 2.9 to 29 µM) |  |  | 
6 | CCn1c(CO)nc(C(C)C)c1Sc1cccc(F)c1 [Compound I-37, [1-ethyl-5-(3-fluorophenylthio)-4-isopropyl-1H-imidazol-2-yl]methanol] | 6.69 | 0.0005 mg/L (≈ 0.0017 µM) | 25 mg/L (≈ 84.9 µM) |  |  | 
7 | CC(C)c1nc(CN)n(C)c1Sc1ccccc1 [Compound I-74, 2-aminomethyl-4-isopropyl-1-methyl-5-phenylthioimidazole] | 4.66 | 0.25 mg/L (≈ 0.956 µM) | 12.5 to 25 mg/L (≈ 47.8 to 95.6 µM) |  |  | 
8 | CC(C)c1c(Sc2cccc(Cl)c2)nc(COC(N)=O)n1C [Compound I-59, 2-carbamoyloxymethyl-4-(3-chlorophenylthio)-5-isopropyl-1-methylimidazole] | < 3.53 |  | 12.5 to 25 mg/L (≈ 36.8 to 73.6 µM) |  | 12.5 mg/L (≈ 36.8 µM) | 
9 | Cc1cc(C)cc(Sc2c(C(C)C)nc(CO)n2C)c1 [Compound I-9, [5-(3,5-dimethylphenylthio)-4-isopropyl-1-methyl-1H-imidazol-2-yl]methanol] | 5.08 | 0.008 mg/L (≈ 0.0275 µM) | 10 mg/L (≈ 34.4 µM) |  |  | 
10 | CC(C)c1nc(CCO)n(Cc2ccccc2N)c1Sc1cc(Cl)cc(Cl)c1 [Compound I-143] | 4.11 | 0.008 mg/L (≈ 0.0183 µM) |  | 12.5 mg/L (≈ 28.6 µM) |  | 
11 | CC(C)c1nc(CN)n(Cc2ccccn2)c1Sc1cc(Cl)cc(Cl)c1 [Compound I-95] | 5.76 | 0.03 to 0.06 mg/L (≈ 0.0736 to 0.147 µM) |  | 6.3 mg/L (≈ 15.5 µM) |  | 
12 | CC(C)c1nc(CN)n(C)c1Sc1cc(Cl)cc(Cl)c1.O=C(O)C(=O)O [Compound I-66, 2-aminomethyl-5-(3,5-dichlorophenylthio)-4-isopropyl-1-methylimidazole oxalate] | 5.78 | 0.016 mg/L | 6.3 to 12.5 mg/L |  |  | 
13 | CC(C)c1nc(CC(=O)O)n(C)c1Sc1cc(Cl)cc(Cl)c1 [Compound I-80, [5-(3,5-dichlorophenylthio)-4-isopropyl-1-nethyl-1H-imidazol-2-yl]acetic acid] | 5.51 | 0.5 to 1 mg/L (≈ 1.39 to 2.78 µM) | 10 to 100 mg/L (≈ 27.8 to 278 µM) |  |  | 
14 | CC(C)c1nc(CCOCc2ccccc2)n(Cc2ccncc2)c1Sc1cc(Cl)cc(Cl)c1 [Compound 122b, 4-[2-(2-benzyloxyethyl)-5-(3,5-dichlorophenylthio)-4-isopropyl-1H-imidazol-1-ylmethy]pyridine] | 4.15 | 0.5 to 1 mg/L (≈ 0.976 to 1.95 µM) |  | 6.3 mg/L (≈ 12.3 µM) |  | 
15 | CC(C)c1nc(CO)n(CCCc2ccccn2)c1Sc1cc(Cl)cc(Cl)c1 [Compound 112b, 5-(3,5-dichlorophenylthio)-4-isopropyl-2-hydroxymethyl-1-(3-(2-pyridyl)propyl)-1H-imidazole] | 5.22 | < 0.008 mg/L |  | 6.3 to 12.5 mg/L (≈ 14.4 to 28.6 µM) |  | 
16 | CC(C)c1nc(CO)n(Cc2ccsc2)c1Sc1cc(Cl)cc(Cl)c1 [Compound I-127, 5-(3,5-dichlorophenylthio)-2-hydroxymethyl-4-isopropyl-1-(13-thienylmethyl)-1H-imidazole hydrochloride] | 4.83 | 0.016 mg/L |  | 12.5 to 25 mg/L |  | 
17 | CC(=N)NCc1nc(C(C)C)c(Sc2cc(Cl)cc(Cl)c2)n1C [Compound I-84] | < 3.57 | 1 mg/L (≈ 2.69 µM) | 1 to 10 mg/L (≈ 2.69 to 26.9 µM) |  |  | 
18 | CC(C)c1nc(CN)n(C)c1Sc1cccc([N+](=O)[O-])c1 [Compound I-67, 2-aminomethyl-4-isopropyl-1-methyl-5-(3-nitrophenylthio)-1H-imidazole] | 4.75 | 0.13 to 0.25 mg/L (≈ 0.424 to 0.816 µM) | 12.5 to 25 mg/L (≈ 40.8 to 81.6 µM) |  |  | 
19 | Cc1cc(C)cc(Sc2c(C(C)C)nc(C)n2C)c1 [Compound I-2, 5-(3,5-dimethylphenylthio)-1,2-dimethyl-4-isopropyl-1H-imidazole] | 5.12 | 0.008 mg/L (≈ 0.0292 µM) | 25 mg/L (≈ 91.1 µM) |  |  | 
20 | Cc1cc(C)cc(Sc2c(C(C)C)nc(C=NN)n2C)c1 [Compound I-11, 5-(3,5-dimethylphenylthio)-4-isopropyl-1-methyl-1H-imidazole-2-carbaldehyde hydrazone] | 4.26 | 0.25 mg/L (≈ 0.827 µM) | 1 to 10 mg/L (≈ 3.31 to 33.1 µM) |  |  | 
21 | CC(C)c1nc(CNCCO)n(C)c1Sc1cc(Cl)cc(Cl)c1 [Compound I-79, 2-{[5-(3,5-dichlorophenylthio)-4-isopropyl-1-methyl-1H-imidazol-2-yl]methylamino} ethanol] | 4.46 | 0.25 mg/L (≈ 0.668 µM) | 1 to 10 mg/L (≈ 2.67 to 26.7 µM) |  |  | 
22 | CC(C)c1nc(CCO)n(CCO)c1Sc1cc(Cl)cc(Cl)c1 [Compound 131c, 2-(5-(3,5-dichlorophenylthio)-2-(2-hydroxyethyl)-4-isopropyl-1H-imidazol-1-yl)ethanol] | 5.59 | < 0.008 mg/L |  | 6.3 to 12.5 mg/L (≈ 16.8 to 33.3 µM) |  | 
23 | CCn1c(CCOCc2ccccc2)nc(C(C)C)c1Sc1cc(Cl)cc(Cl)c1 [Compound 122a] | 4.37 | 0.13 mg/L (≈ 0.289 µM) |  | 6.3 mg/L (≈ 14 µM) |  | 
24 | CC(C)c1nc(CCO)n(C)c1Sc1cc(Cl)cc(Cl)c1 [Compound I-81a, 2-[5-(3,5-dichlorophenylthio)-4-isopropyl-1-methyl-1H-imidazol-2-yl]ethanol] | 6.39 |  | 12.5 mg/L (≈ 36.2 µM) |  | 0.001 mg/L (≈ 0.0029 µM) | 
25 | CC(C)c1nc(CCOCc2ccccc2)n(C)c1Sc1cc(Cl)cc(Cl)c1 [Compound I-136, 2-(2-benzyloxyethyl)-5-(3,5-dichlorophenylthio)-4-isopropyl-1-methyl-1H-imidazole] |  | 0.008 to 0.016 mg/L (≈ 0.0184 to 0.0367 µM) |  | 12.5 mg/L (≈ 28.7 µM) |  | 5.34
26 | CC(C)c1nc(CN)n(C(C)C)c1Sc1cc(Cl)cc(Cl)c1 [Compound I-72, 2-aminomethyl-5-(3,5-dichlorophenylthio)-1,4-diisopropylimidazole] | 5.65 | 0.03 to 0.06 mg/L (≈ 0.0837 to 0.167 µM) | 1 to 10 mg/L (≈ 2.79 to 27.9 µM) |  |  | 
27 | CC(C)c1nc(COC(N)=O)n(C)c1Sc1cccc(Cl)c1 [Compound I-42, 2-carbamoyloxymethyl-5-(3-chlorophenylthio)-4-isopropyl-1-methyl-1H-imidazole] | 5.30 |  |  | 8 mg/L (≈ 23.5 µM) | 0.07 mg/L (≈ 0.206 µM) | 
28 | CC(C)c1nc(CO)n(Cc2cnc3ccccc3c2)c1Sc1cc(Cl)cc(Cl)c1 [Compound 109, 2-hydroxymethyl-5-(3,5-dichlorophenylthio)-4-isopropyl-1-(quinolin-3-ylmethyl)-1H-imidazole] | 5.36 | 0.008 mg/L (≈ 0.0175 µM) |  | 100 mg/L (≈ 218 µM) |  | 
